In brackets after ≈: the same amount, converted by molar mass. Non-standard residues stand in square brackets, D forms with d. Residues, ends and D or L forms follow the SMILES beside them.
Test system: S. aureus ATCC 25923
Type: cell-based, Staphylococcus aureus
Conditions: ATCC 25923, 2 h
Protocol: To test the retinue of antimicrobial activity of mKLK in human serum, MIC of the serum-treated peptide was determined against S. aureus ATCC 25923 using microdilution broth assay. […] The MIC was determined as the lowest concentration of peptide at which no visible growth is seen[49].

For CC(C)C[C@@H](NC(=O)[C@H](N)Cc1c[nH]c2ccccc12)C(=O)N[C@H](Cc1c[nH]c2ccccc12)C(=O)N[C@H](C)C(=O)N[C@H](CC(C)C)C(=O)N[C@H](CC(C)C)C(=O)N[C@H](CCCCN)C(=O)N[C@H](CC(C)C)C(=O)N[C@H](CC(C)C)C(=O)N[C@H](CCCCN)C(=O)N[C@H](CC(C)C)C(=O)N[C@H](CCCCN)C(N)=O [mKLK] (H-[dW][dL][dW][dA][dL][dL][dK][dL][dL][dK][dL][dK]-NH2; N-terminus assumed), the “MIC after serum treatment” value was 4 µg/mL (≈ 2.62 µM).
